Here are results for 16 compounds from ChEMBL document CHEMBL1828524, “Monoamine oxidase inhibition by selected anilide derivatives” (Eur J Med Chem, 2011).

Broadly, the IC50 is the concentration at which inhibition is half-maximal.

The structures appear in SMILES notation.

One data set addresses T1, Amine oxidase [flavin-containing] B (Homo sapiens, UniProt P27338).
T1 sequence (P27338 whole entry): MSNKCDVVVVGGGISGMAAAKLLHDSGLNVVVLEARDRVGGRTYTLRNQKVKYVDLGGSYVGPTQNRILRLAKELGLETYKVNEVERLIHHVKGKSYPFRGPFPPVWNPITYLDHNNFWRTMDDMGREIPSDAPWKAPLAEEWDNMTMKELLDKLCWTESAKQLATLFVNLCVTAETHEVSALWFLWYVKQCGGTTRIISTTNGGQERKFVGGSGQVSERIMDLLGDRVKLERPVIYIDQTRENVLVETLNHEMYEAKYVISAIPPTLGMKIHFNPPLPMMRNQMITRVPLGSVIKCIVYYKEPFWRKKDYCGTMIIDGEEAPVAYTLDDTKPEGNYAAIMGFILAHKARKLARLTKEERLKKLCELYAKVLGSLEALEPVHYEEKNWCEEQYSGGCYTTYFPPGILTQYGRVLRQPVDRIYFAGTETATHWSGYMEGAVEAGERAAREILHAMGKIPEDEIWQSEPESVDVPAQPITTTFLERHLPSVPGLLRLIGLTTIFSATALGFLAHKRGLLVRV
Put plainly: Inhibition of human recombinant MAO-B assessed as oxidation of kynuramine to 4-hydroxyquinoline after 20 mins.
With `Cc1cccc(NC(=O)/C=C/C=C/c2ccccc2)c1`, the IC50 came out at 6.65 µM.

Consider `O=C(C/C=C/c1ccccc1)Nc1cccc(Br)c1`, for which the IC50 stood at 30.9 µM.

`O=C(/C=C/c1ccc(O)cc1)Nc1cccc(Br)c1`: the IC50 is 0.026 µM.

On to `N#Cc1cccc(/C=C/C(=O)Nc2cccc(Br)c2)c1`, for which the IC50 came to 0.059 µM.

On to `O=C(C/C=C/c1ccccc1)Nc1ccccc1`, for which the IC50 came to 33.2 µM.

Turning to `O=C(C/C=C/c1ccccc1)Nc1cccc(Cl)c1`, the IC50 was 23.5 µM.

`O=C(/C=C/C=C/c1ccccc1)Nc1cccc(Br)c1`: the half-maximal inhibitory concentration (IC50) came to 2.73 µM.

Consider `Cc1cccc(NC(=O)C/C=C/c2ccccc2)c1`, for which the IC50 stood at 48.1 µM.

Regarding `O=C(/C=C/c1ccccc1)Nc1cccc(Br)c1`, the IC50 is 0.447 µM.

With `O=C(/C=C/C=C/c1ccccc1)Nc1cccc(Cl)c1`, the IC50 amounted to 2.2 µM.

As to `O=C(/C=C/c1cccc(O)c1)Nc1cccc(Br)c1`, the IC50 came out at 1.01 µM.

Regarding `Cc1cccc(NC(=O)/C=C/c2ccccc2)c1` [N-M-TOLYLCINNAMAMIDE], the IC50 is 4.5 µM.

For the compound `O=C(/C=C/C=C/c1ccccc1)Nc1ccccc1`, the concentration for half-maximal inhibition (IC50) was 5.16 µM.

Turning to `N#Cc1ccc(/C=C/C(=O)Nc2cccc(Cl)c2)cc1`, the IC50 was determined as 0.407 µM.

Turning to `N#Cc1cccc(/C=C/C(=O)Nc2cccc(Cl)c2)c1`, the half-inhibitory concentration (IC50) stood at 0.09 µM.

With `N#Cc1ccc(/C=C/C(=O)Nc2cccc(Br)c2)cc1`, the IC50 came to 0.289 µM.

The target of a further data set is T2, Amine oxidase [flavin-containing] A (Homo sapiens, UniProt P21397).
T2 sequence (P21397 whole entry): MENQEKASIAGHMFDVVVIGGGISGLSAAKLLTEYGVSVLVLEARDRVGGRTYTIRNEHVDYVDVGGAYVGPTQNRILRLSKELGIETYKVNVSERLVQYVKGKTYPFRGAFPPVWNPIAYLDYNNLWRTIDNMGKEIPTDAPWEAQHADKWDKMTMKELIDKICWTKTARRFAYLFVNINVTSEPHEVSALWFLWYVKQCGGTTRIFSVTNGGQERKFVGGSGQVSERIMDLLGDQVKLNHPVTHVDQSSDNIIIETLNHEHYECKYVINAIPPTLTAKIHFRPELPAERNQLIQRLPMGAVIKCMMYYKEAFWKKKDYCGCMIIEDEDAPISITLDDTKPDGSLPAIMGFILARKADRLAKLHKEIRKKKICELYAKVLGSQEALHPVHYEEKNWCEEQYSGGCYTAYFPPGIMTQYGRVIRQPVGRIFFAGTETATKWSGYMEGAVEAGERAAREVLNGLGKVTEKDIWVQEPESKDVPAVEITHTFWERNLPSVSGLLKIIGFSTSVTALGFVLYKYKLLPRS
Put plainly: Inhibition of human recombinant MAO-A assessed as oxidation of kynuramine to 4-hydroxyquinoline at 100 uM after 20 mins.
Take `O=C(/C=C/c1cccc(O)c1)Nc1cccc(Br)c1`: the “inhibition (INH)” value is “Not Active”.

Regarding `O=C(/C=C/C=C/c1ccccc1)Nc1ccccc1`, the “inhibition (INH)” value is “Not Active”.

For another data set, the target named is T2, Amine oxidase [flavin-containing] A. Kind of data set: Inhibition of human recombinant MAO-A assessed as oxidation of kynuramine to 4-hydroxyquinoline after 20 mins.
As for `Cc1cccc(NC(=O)/C=C/C=C/c2ccccc2)c1`, the IC50 was found to be 335 µM.

Take `O=C(C/C=C/c1ccccc1)Nc1cccc(Br)c1`: the IC50 worked out at 34.5 µM.

In the case of `O=C(/C=C/c1ccc(O)cc1)Nc1cccc(Br)c1`, the IC50 amounted to 35.6 µM.

Regarding `N#Cc1cccc(/C=C/C(=O)Nc2cccc(Br)c2)c1`, the IC50 stood at 27.2 µM.

Consider `O=C(C/C=C/c1ccccc1)Nc1ccccc1`, for which the IC50 is 297 µM.

Take `O=C(C/C=C/c1ccccc1)Nc1cccc(Cl)c1`: the IC50 amounted to 58.4 µM.

For the compound `O=C(/C=C/C=C/c1ccccc1)Nc1cccc(Br)c1`, the IC50 was determined as 105 µM.

As for `Cc1cccc(NC(=O)C/C=C/c2ccccc2)c1`, the IC50 was 74.8 µM.

Turning to `O=C(/C=C/c1ccccc1)Nc1cccc(Br)c1`, the IC50 worked out at 16.7 µM.

In the case of `O=C(/C=C/C=C/c1ccccc1)Nc1cccc(Cl)c1`, the IC50 was 98.2 µM.

As to `Cc1cccc(NC(=O)/C=C/c2ccccc2)c1` [N-M-TOLYLCINNAMAMIDE], the IC50 was 48.1 µM.

For `N#Cc1ccc(/C=C/C(=O)Nc2cccc(Cl)c2)cc1`, the IC50 is 184 µM.

With `N#Cc1cccc(/C=C/C(=O)Nc2cccc(Cl)c2)c1`, the IC50 was found to be 13.5 µM.

Turning to `N#Cc1ccc(/C=C/C(=O)Nc2cccc(Br)c2)cc1`, the IC50 stood at 36.2 µM.
